This passage reports EC50 results from patent US9902703B2, “Somatostatin modulators and uses thereof” (Crinetics Pharmaceuticals, Inc., priority 2015, dated 2018).

Each structure is given as a SMILES string.

What is called EC50 is the concentration needed to bring the measured effect to its halfway point.

This test deals with T1, human somatostatin receptor subtype 2 (Homo sapiens, UniProt P30874).
T1 construct: expressed in transfected cells; host or cells: CHO (Chinese hamster ovary) cells, G-418 selected
T1 sequence (P30874 whole entry): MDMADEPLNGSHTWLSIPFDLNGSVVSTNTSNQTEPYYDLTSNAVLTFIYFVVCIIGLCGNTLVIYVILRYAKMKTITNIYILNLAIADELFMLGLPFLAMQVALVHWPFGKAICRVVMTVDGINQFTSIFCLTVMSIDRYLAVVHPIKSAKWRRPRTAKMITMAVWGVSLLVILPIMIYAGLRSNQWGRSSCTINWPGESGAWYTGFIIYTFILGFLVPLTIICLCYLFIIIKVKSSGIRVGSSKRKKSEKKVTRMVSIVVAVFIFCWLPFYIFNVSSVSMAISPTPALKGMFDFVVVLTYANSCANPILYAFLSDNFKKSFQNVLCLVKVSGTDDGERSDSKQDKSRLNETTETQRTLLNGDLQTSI
The test can be described thus: cAMP assay (functional assay for SSTR2 agonists). The following applies: CHO cells expressing human SSTR2; intracellular cAMP with forskolin, HTRF; read-out: SSTR2a EC50. It counts as cell-based. The procedure, abridged:
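CHO cells expressing human SSTR2 were treated with compound for 15 min at 37° C in buffer with forskolin, 0.2 mM IBMX and 0.1% BSA. Intracellular cAMP was read by HTRF after 1-24 h lysis at room temperature, and EC50 came from cAMP versus compound concentration curves.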
Consider `Cc1cc(Cl)cc(N2C=Nc3cc(C)c(-c4cccc(O)c4)cc3C2C(=O)N(C)C[C@@H]2C[C@@H](F)CN2)c1` (stereo partly drawn) [Compound 1-56, 3-(3-chloro-5-methylphenyl)-N-{[(2S,4R)-4-fluoropyrrolidin-2-yl]methyl}-6-(3-hydroxyphenyl)-N,7-dimethyl-3,4-dihydroquinazoline-4-carboxamide], for which the EC50 was under 100 nM.

Regarding `Cc1cc(Cl)cc(N2C=Nc3ccc(-c4cc(O)ccc4Cl)cc3C2C(=O)N(C)C[C@@H]2CCCN2)c1` (stereo partly drawn) [Compound 1-30, 6-(2-chloro-5-hydroxyphenyl)-3-(3-chloro-5-methylphenyl)-N-methyl-N-[(2S)-pyrrolidin-2-ylmethyl]-3,4-dihydroquinazoline-4-carboxamide], the EC50 was under 100 nM.

`Cc1cc(Cl)cc(N2C=Nc3cc(C)c(-c4cc(O)ccc4Cl)cc3C2C(=O)N(C)C[C@@H]2CCCCN2)c1` (stereo partly drawn) [Compound 1-23, 6-(2-chloro-5-hydroxyphenyl)-3-(3-chloro-5-methylphenyl)-N,7-dimethyl-N-[(2S)-piperidin-2-ylmethyl]-3,4-dihydroquinazoline-4-carboxamide]: the EC50 was under 100 nM.

Consider `Cc1cc(C)cc(N2C=Nc3ccc(-c4cccc(O)c4)cc3C2C(=O)N(C)C[C@H](C)N)c1` (stereo partly drawn) [Compound 1-1, N-[(2S)-2-aminopropyl]-3-(3,5-dimethylphenyl)-6-(3-hydroxyphenyl)-N-methyl-3,4-dihydroquinazoline-4-carboxamide], for which the EC50 lay within 100 to 1000 nM.

`Cc1cc(C)cc(N2C=Nc3cc(Cl)c(-c4cccc(O)c4)cc3C2C(=O)NCCN)c1` (centres unmarked) [Compound 1-3, N-(2-aminoethyl)-7-chloro-3-(3,5-dimethylphenyl)-6-(3-hydroxyphenyl)-3,4-dihydroquinazoline-4-carboxamide]: the concentration giving a half-maximal response (EC50) lay in the range of 1000 to 10000 nM.

As to `Cc1cc(Cl)cc(N2C=Nc3cc(C)c(-c4cncc(O)c4)cc3C2C(=O)N(C)C[C@@H]2CCCN2)c1` (stereo partly drawn) [Compound 2-10, 3-(3-chloro-5-methylphenyl)-6-(5-hydroxypyridin-3-yl)-N,7-dimethyl-N-[(2S)-pyrrolidin-2-ylmethyl]-3,4-dihydroquinazoline-4-carboxamide], the EC50 is under 100 nM.

As to `CC[C@H](N)CN(C)C(=O)C1c2cc(-c3cccc(O)c3F)c(C)cc2N=CN1c1cc(C)cc(C)c1` (stereo partly drawn) [Compound 1-11, N-[(2S)-2-aminobutyl]-3-(3,5-dimethylphenyl)-6-(2-fluoro-3-hydroxyphenyl)-N,7-dimethyl-3,4-dihydroquinazoline-4-carboxamide], the EC50 was under 100 nM.

Take `CC[C@H](N)CN(C)C(=O)C1c2cc(-c3c(F)ccc(O)c3F)c(C)cc2N=CN1c1cc(C)cc(C)c1` (stereo partly drawn) [Compound 1-15, N-[(2S)-2-aminobutyl]-6-(2,6-difluoro-3-hydroxyphenyl)-3-(3,5-dimethylphenyl)-N,7-dimethyl-3,4-dihydroquinazoline-4-carboxamide]: the EC50 was under 100 nM.

With `Cc1cc(Cl)cc(N2C=Nc3cc(C)c(-c4cc(Cl)cc(C5(C#N)CC5)c4)cc3C2C(=O)N(C)C[C@@H]2CCCN2)c1` (stereo partly drawn) [Compound 2-17, 6-[3-chloro-5-(1-cyanocyclopropyl)phenyl]-3-(3-chloro-5-methylphenyl)-N,7-dimethyl-N-[(2S)-pyrrolidin-2-ylmethyl]-3,4-dihydroquinazoline-4-carboxamide], the concentration for a half-maximal effect (EC50) is under 100 nM.

`Cc1cc(Cl)cc(N2C=Nc3cc(Cl)c(-c4cccc(O)c4)cc3C2C(=O)N(C)C[C@@H]2CCCN2)c1` (stereo partly drawn) [Compound 1-72, 7-chloro-3-(3-chloro-5-methylphenyl)-6-(3-hydroxyphenyl)-N-methyl-N-((S)-pyrrolidin-2-ylmethyl)-3,4-dihydroquinazoline-4-carboxamide]: the EC50 is under 100 nM.

Consider `Cc1cc(Cl)cc(N2C=Nc3ccc(-c4cc(O)cc(F)c4)cc3C2C(=O)N(C)C[C@@H]2CCCN2)c1` (stereo partly drawn) [Compound 1-50, 3-(3-chloro-5-methylphenyl)-6-(3-fluoro-5-hydroxyphenyl)-N-methyl-N-[(2S)-pyrrolidin-2-ylmethyl]-3,4-dihydroquinazoline-4-carboxamide], for which the EC50 was under 100 nM.

As to `Cc1cc(Cl)cc(N2C=Nc3cc(C)c(-c4cc(C#N)ccc4Cl)cc3C2C(=O)N(C)C[C@@H]2CCCN2)c1` (stereo partly drawn) [Compound 1-37, 6-(2-chloro-5-cyanophenyl)-3-(3-chloro-5-methylphenyl)-N,7-dimethyl-N-[(2S)-pyrrolidin-2-ylmethyl]-3,4-dihydroquinazoline-4-carboxamide], the EC50 was under 100 nM.

Consider `Cc1cc(Cl)cc(N2C=Nc3cc(C)c(-c4ccc(O)c(F)c4)cc3C2C(=O)N(C)C[C@@H]2CCCN2)c1` (stereo partly drawn) [Compound 2-32, 3-(3-chloro-5-methylphenyl)-6-(3-fluoro-4-hydroxyphenyl)-N,7-dimethyl-N-[(2S)-pyrrolidin-2-ylmethyl]-3,4-dihydroquinazoline-4-carboxamide], for which the EC50 was under 100 nM.

In the case of `Cc1cc(Cl)cc(N2C=Nc3cc(C)c(-c4ccnc(C#N)c4)cc3C2C(=O)N(C)C[C@@H]2CCCN2)c1` (stereo partly drawn) [Compound 2-27, 3-(3-chloro-5-methylphenyl)-6-(2-cyanopyridin-4-yl)-N,7-dimethyl-N-[(2S)-pyrrolidin-2-ylmethyl]-3,4-dihydroquinazoline-4-carboxamide], the EC50 was in the range of 100 to 1000 nM.

As for `CC[C@H](N)CN(C)C(=O)C1c2cc(-c3cc(O)ccc3C)c(Cl)cc2N=CN1c1cc(C)cc(C)c1` (stereo partly drawn) [Compound 1-8, N-[(2S)-2-aminobutyl]-7-chloro-3-(3,5-dimethylphenyl)-6-(5-hydroxy-2-methylphenyl)-N-methyl-3,4-dihydroquinazoline-4-carboxamide], the EC50 was under 100 nM.

With `Cc1cc(Cl)cc(N2C=Nc3cc(C)c(-c4c(C)cccc4F)cc3C2C(=O)N(C)C[C@@H]2CCCN2)c1` (stereo partly drawn) [Compound 2-12, 3-(3-chloro-5-methylphenyl)-6-(2-fluoro-6-methylphenyl)-N,7-dimethyl-N-[(2S)-pyrrolidin-2-ylmethyl]-3,4-dihydroquinazoline-4-carboxamide], the EC50 was under 100 nM.

On to `Cc1cc(Cl)cc(N2C=Nc3cc(C)c(-c4cccc(O)c4)cc3C2C(=O)N(C)C[C@@H]2CC(F)(F)CN2)c1` (stereo partly drawn) [Compound 1-55, 3-(3-chloro-5-methylphenyl)-N-{[(2S)-4,4-difluoropyrrolidin-2-yl]methyl}-6-(3-hydroxyphenyl)-N,7-dimethyl-3,4-dihydroquinazoline-4-carboxamide], for which the EC50 is under 100 nM.

For `Cc1cc(Cl)cc(N2C=Nc3cc(C)c(-c4cc(F)cc(F)c4)cc3C2C(=O)N(C)C[C@@H]2CCCN2)c1` (stereo partly drawn) [Compound 1-40, 3-(3-chloro-5-methylphenyl)-6-(3,5-difluorophenyl)-N,7-dimethyl-N-[(2S)-pyrrolidin-2-ylmethyl]-3,4-dihydroquinazoline-4-carboxamide], the EC50 was under 100 nM.

Turning to `Cc1cc(Cl)cc(N2C=Nc3cc(C)c(-c4cccc(-c5nnn[nH]5)c4)cc3C2C(=O)N(C)C[C@@H]2CCCN2)c1` (stereo partly drawn) [Compound 1-47, 3-(3-chloro-5-methylphenyl)-N,7-dimethyl-N-[(2S)-pyrrolidin-2-ylmethyl]-6-[3-(1H-1,2,3,4-tetrazol-5-yl)phenyl]-3,4-dihydroquinazoline-4-carboxamide], the EC50 is under 100 nM.

As to `Cc1cc(Cl)cc(N2C=Nc3cc(C)c(-c4cccc(CC(=O)O)c4)cc3C2C(=O)N(C)C[C@@H]2CCCN2)c1` (stereo partly drawn) [Compound 1-53, 2-{3-[3-(3-chloro-5-methylphenyl)-7-methyl-4-{methyl[(2S)-pyrrolidin-2-ylmethyl]carbamoyl}-3,4-dihydroquinazolin-6-yl]phenyl}acetic acid], the EC50 is under 100 nM.
